Tests used:
Type in all cases: cell-based
[1] = tested on: Staphylococcus aureus ATCC 29213; assay: Autolysis, optical density of culture; conditions: 10×MIC, 24 hours
Method: Staphylococcus aureus ATCC 29213 in CAMH was challenged with […] compounds 8 or compound 35. OD595 was measured after 24 hours. Data represented the mean±S.D. of biological triplicates. Statistical analysis was performed by unpaired t test in 95% confidence interval (*=p<0.05; **p<0.01; ***p<0.001; ****[…]).
The overnight culture of Staphylococcus aureus ATCC 29213 was subcultured, regrown to exponential phase and then diluted to OD595=0.4. Bacteria were treated by 10×MIC of compound 8 and compound 35. At T=24 hour, OD595 was measured.

human red blood cell = assay: Hemolysis assay; conditions: up to the highest concentration 100 μM, 2 hours, 37° C.
Method: FIGS. 3A-3B are diagrams showing the hemolysis ability of compound 8 (FIG. 3A) and compound 35 (FIG. 3B) towards human red blood cell. % Hemolysis were mean±S.D of biological triplicates normalized to 0.1% triton X-100 as positive control.
Citrate-phosphate-dextrose (CPD) human whole blood was obtained from Hong Kong Red Cross. Whole blood was centrifuged in 1000 rpm for 10 minutes to remove the upper plasma layer. The remaining portion was washed by 1×PBS 3 times or until the upper PBS layer was transparent. The upper PBS layer was removed and the lower blood cell layer was diluted into 2% in PBS. 200 μL 2% blood in PBS was then added to round-bottom 96-well plate. Compounds were subsequently added to 96-well plate on 1% DMSO concentration. After incubation in 37° C. for 2 hours, the round-bottom 96-well plate was centrifuged in 1000 rpm for 10 minutes. 50 μL supernatant was transferred to a flat-bottom 96-well plate. Absorbance at 405 nm was then measured by Beckman Coulter DTX 880 Multimode Detector. Biological replicates were performed.

[2] = tested on: Staphylococcus aureus ATCC 35556 biofilm formation; assay: Inhibition of biofilm formation (crystal violet); conditions: 24 hours treatment, also sub-inhibitory concentration
Method: Staphylococcus aureus ATCC 35556 was treated with various concentrations of compound 8, compound 35 or 1% DMSO as negative control for 24 hours. Biofilm was quantified using crystal violet. The data were normalized to DMSO (100% biofilm) and represent average values±S.D. (n=9 per group). Statistical analysis was performed by ANOVA with Dunnett's post-test to calculate p-values adjusted for multiple comparisons with DMSO as control condition (*p<0.05; **p<0.01; ***p<0.001).
Briefly, overnight cultures of Staphylococcus aureus ATCC 35556 in Tryptic Soy Broth (TSB) were sub-cultured from an overnight culture 1:100 for 2.5 hours. The bacteria were diluted 1:100 into fresh TSB and 200 μL bacteria in TSB was added to each well of a flat-bottomed 96-well plate (200 μL/well). Compounds (two-fold serial dilutions; final DMSO concentration of maximum 1%) were added. Plates were incubated at 37° C. for 24 hours. After 24 hours, the supernatant was removed and washed by PBS (200 μL) 2 times. Biofilms were dried at 37° C. for 30 minutes. 1% Crystal violet (25% ethanol in H2O) was diluted 1:5 in PBS and 200 μL was added to each well, followed by incubation at room temperature for 10 minutes. […] Following a 1:4 dilution step (33% acetic acid), optical density was measured at 595 nm by Beckman Coulter DTX 880 Multimode Detector. […]

[3] = tested on: pre-established Staphylococcus aureus ATCC 35556 biofilm; assay: Reduction of established biofilm (crystal violet); conditions: 24 hours pre-established biofilm treated 24 hours, concentration dependent
Method: 24 hours pre-established Staphylococcus. aureus ATCC 35556 biofilm was treated with various concentrations of compound 8, compound 35 or 1% DMSO as negative control for 24 hours. Biofilm was quantified using crystal violet. The data were normalized to DMSO (100% biofilm) and represent average values±S.D. (n=9 per group). Statistical analysis was performed by ANOVA with Dunnett's post-test to calculate p-values adjusted for multiple comparisons with DMSO as control condition (*p<0.05; **p<0.01; ***p<0.001).
Briefly, overnight cultures of Staphylococcus aureus ATCC 35556 in TSB were diluted 1:100 and regrow for 2.5 hours at 37° C., 250 rpm. The bacteria were diluted 1:100 into fresh TSB and 200 μL bacteria in TSB was added to each well of a flat-bottom 96-well plate (200 μL/well). The plate was incubated at 37° C. for 24 hours to establish biofilms. After 24 hours, the supernatant was removed and washed by PBS (200 μL) 2 times. Premixed solution of TSB and compound was prepared in a separate 96-well-plate (200 μL/well; two-folded serial dilutions; final DMSO concentration of maximum 1%). 200 μL compound in TSB was transferred to the plates with established biofilms. […] Following a 1:4 dilution step (33% acetic acid), the optical density was measured at 595 nm by Beckman Coulter DTX 880 Multimode Detector. […]

## CC(C)C[C@H](ONC(=O)[C@@H](COCc1ccccc1)ONC(=O)c1cc(C(F)(F)F)cc(C(F)(F)F)c1)C(=O)Nc1ccccc1 [Compound 8]
[1]
  optical density (OD595) of culture, accelerated autolysis: reduction of the optical density
Human red blood cell
  hemolytic activity on human blood cell: didn't have observable hemolytic activity
[2]
  formation of the Staphylococcus aureus biofilm: significantly inhibited the formation of the Staphylococcus aureus biofilm even under sub-inhibitory concentration
[3]
  established Staphylococcus aureus biofilm: significantly reduced

## CC(C)C[C@H](ONC(=O)[C@@H](COCc1ccccc1)ONC(=O)c1cc(C(F)(F)F)cc(C(F)(F)F)c1)C(=O)Nc1ccc2c(c1)OC(F)(F)O2 [Compound 35]
[1]
  optical density (OD595) of culture, accelerated autolysis: reduction of the optical density
Human red blood cell
  hemolytic activity on human blood cell: didn't have observable hemolytic activity
[2]
  formation of the Staphylococcus aureus biofilm: significantly inhibited the formation of the Staphylococcus aureus biofilm even under sub-inhibitory concentration
[3]
  established Staphylococcus aureus biofilm: significantly reduced

Source: patent US20240315992A1, “AMINOXY ACID-BASED ANTIBACTERIAL COMPOUNDS AND METHODS THEREOF” (The University of Hong Kong, priority 2023, published 2024)
